Experimental data taken from the NIST ThermoML archive (doi:10.1021/je0600810).
Numbers after ± are expanded uncertainties.

Tests used:
[1] = 101.33 kPa, Liquid; for viscosity: Capillary tube (Ostwald / Ubbelohde) method
[2] = φn = volume fraction of the nth substance listed; settings: 101 kPa, Liquid

**Q.** Which results are given for `CO` [methanol]?
**A.** mass density ([1]; 298.15 K): 786.59 ± 0.61 kg/m3; viscosity ([1]; 298.15 K): 0.5446 ± 0.0048 mPa·s; mass density ([1]; 308.15 K): 777.28 ± 0.62 kg/m3; viscosity ([1]; 308.15 K): 0.4747 ± 0.0043 mPa·s; mass density ([1]; 318.15 K): 767.74 ± 0.63 kg/m3; viscosity ([1]; 318.15 K): 0.4185 ± 0.0039 mPa·s

**Q.** Which results are given for `CO` [methanol] + O?
**A.** mass density ([2]; 298.15 K, φ1 = 0.01): 982.97 ± 0.34 kg/m3; viscosity ([2]; 298.15 K, φ1 = 0.01): 1.084 ± 0.018 mPa·s; mass density ([2]; 298.15 K, φ1 = 0.2): 969.63 ± 0.39 kg/m3; viscosity ([2]; 298.15 K, φ1 = 0.2): 1.311 ± 0.021 mPa·s; mass density ([2]; 298.15 K, φ1 = 0.3): 956.2 ± 0.44 kg/m3; viscosity ([2]; 298.15 K, φ1 = 0.3): 1.471 ± 0.024 mPa·s; mass density ([2]; 308.15 K, φ1 = 0.01): 979.73 ± 0.35 kg/m3; viscosity ([2]; 308.15 K, φ1 = 0.01): 0.8665 ± 0.015 mPa·s; mass density ([2]; 308.15 K, φ1 = 0.2): 966.32 ± 0.4 kg/m3; viscosity ([2]; 308.15 K, φ1 = 0.2): 1.022 ± 0.017 mPa·s; mass density ([2]; 308.15 K, φ1 = 0.3): 951.6 ± 0.45 kg/m3; viscosity ([2]; 308.15 K, φ1 = 0.3): 1.142 ± 0.019 mPa·s; mass density ([2]; 318.15 K, φ1 = 0.01): 976.04 ± 0.36 kg/m3; viscosity ([2]; 318.15 K, φ1 = 0.01): 0.702 ± 0.012 mPa·s; mass density ([2]; 318.15 K, φ1 = 0.2): 961.62 ± 0.41 kg/m3; viscosity ([2]; 318.15 K, φ1 = 0.2): 0.8075 ± 0.014 mPa·s; mass density ([2]; 318.15 K, φ1 = 0.3): 946.26 ± 0.46 kg/m3; viscosity ([2]; 318.15 K, φ1 = 0.3): 0.8957 ± 0.015 mPa·s
